These results are taken from paper PMC7726757 (ACS Omega, 2020).

Common to all, as to assay: Isothermal titration calorimetry
On the technique in general: ITC needs no label: the signal is the heat of the interaction.

In experiment [1] the target is T1, Pm-NanK (Pasteurella multocida, UniProt Q9CKB3, M259T).
T1 sequence (Q9CKB3 1-297 M259T): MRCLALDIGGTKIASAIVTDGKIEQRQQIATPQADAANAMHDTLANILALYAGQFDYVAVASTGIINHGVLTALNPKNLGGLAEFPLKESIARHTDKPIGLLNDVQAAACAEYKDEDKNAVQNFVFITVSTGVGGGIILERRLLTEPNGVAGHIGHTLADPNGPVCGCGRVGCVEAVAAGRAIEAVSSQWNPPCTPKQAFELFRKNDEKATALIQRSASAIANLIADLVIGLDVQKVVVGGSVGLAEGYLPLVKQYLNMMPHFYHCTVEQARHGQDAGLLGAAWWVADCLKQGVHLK
It is filed as binding, P. multocida.

Experiment [2] has as its target T2, Vc-NanK (Vibrio cholerae serotype O1, UniProt Q9KR61).
T2 sequence (Q9KR61 1-287): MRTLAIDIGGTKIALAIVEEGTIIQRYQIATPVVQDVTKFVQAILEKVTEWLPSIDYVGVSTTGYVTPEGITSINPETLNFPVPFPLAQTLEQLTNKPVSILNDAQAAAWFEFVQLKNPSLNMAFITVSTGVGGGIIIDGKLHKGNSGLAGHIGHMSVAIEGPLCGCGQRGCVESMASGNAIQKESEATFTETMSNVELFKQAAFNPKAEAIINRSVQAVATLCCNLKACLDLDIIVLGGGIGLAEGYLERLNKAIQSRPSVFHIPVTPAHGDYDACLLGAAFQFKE
It is filed as binding, V. cholera.

Experiment [3] concerns the target T3, Hi-NanK (Haemophilus influenzae, UniProt Q4QP43).
T3 sequence (Q4QP43 1-300): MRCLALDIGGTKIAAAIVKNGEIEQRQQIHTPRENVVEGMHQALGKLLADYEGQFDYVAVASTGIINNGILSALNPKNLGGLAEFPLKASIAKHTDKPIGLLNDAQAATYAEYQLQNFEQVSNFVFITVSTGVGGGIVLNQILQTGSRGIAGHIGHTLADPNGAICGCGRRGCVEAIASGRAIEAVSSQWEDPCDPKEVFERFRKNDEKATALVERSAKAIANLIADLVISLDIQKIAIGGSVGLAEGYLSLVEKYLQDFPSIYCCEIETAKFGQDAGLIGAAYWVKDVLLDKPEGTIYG
It is filed as binding, H. influenzae.

Experiment [4] concerns the target T4, Fn-NanK (Fusobacterium nucleatum, UniProt Q8RDN7).
T4 sequence (Q8RDN7 1-291): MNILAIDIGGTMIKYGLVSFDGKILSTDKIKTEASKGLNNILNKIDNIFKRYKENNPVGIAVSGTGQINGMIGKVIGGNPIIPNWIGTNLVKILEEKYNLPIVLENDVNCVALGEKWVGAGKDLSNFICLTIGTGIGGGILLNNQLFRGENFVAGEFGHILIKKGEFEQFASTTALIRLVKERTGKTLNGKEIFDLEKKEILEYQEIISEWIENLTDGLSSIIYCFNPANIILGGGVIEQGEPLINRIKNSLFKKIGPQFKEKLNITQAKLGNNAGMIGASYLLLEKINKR
It is filed as binding, F. nucleatum. The conditions noted are these: Fn-NanK wild type.

[5] abbreviates: Hi-NanK wild type, ligand alone.
The mark [6] stands for this setting: Hi-NanK, in the presence of ManNAc.

Each structure is given as a SMILES string.

Turning to `Nc1ncnc2c1ncn2[C@@H]1O[C@H](COP(=O)(O)OP(=O)(O)NP(=O)(O)O)[C@@H](O)[C@H]1O` [AMPPNP, adenylyl-imidodiphosphate], the Kd is 112 ± 14.5 µM in experiment [1] (in the presence of ManNAc); “no measurable binding” in experiment [1] (ligand alone); 44 ± 9.2 µM in experiment [2] (in the presence of ManNAc); “no measurable binding” in experiment [2] (ligand alone); 53 ± 6.4 µM in experiment [3] (setting [5]); 72 ± 12 µM in experiment [3] (setting [6]). The Kd in experiment [4] (in the presence of ManNAc) came to 35 ± 1.12 µM; in experiment [4] (ligand alone), 61 ± 7.48 µM. Moreover, the TΔS in experiment [1] (in the presence of ManNAc) was 1.1 kcal/mol; in experiment [2] (in the presence of ManNAc), 3.814 kcal/mol; in experiment [3] (setting [5]) it was “–1.85 Kcal/mol”; in experiment [3] (setting [6]), 1.94 kcal/mol; in experiment [4] (in the presence of ManNAc), “–2.87 Kcal/mol”; in experiment [4] (ligand alone) it was 2.13 kcal/mol. In addition, the ΔH result in experiment [1] (in the presence of ManNAc) is recorded as “–4.3 ± 0.35 Kcal/mol”; in experiment [2] (in the presence of ManNAc), “–2.1 ± 0.482 Kcal/mol”; in experiment [3] (setting [5]), “–7.7 ± 2.44 Kcal/mol”; in experiment [3] (setting [6]), “–3.7 ± 0.68 Kcal/mol”; in experiment [4] (in the presence of ManNAc), “–8.94 ± 0.18 Kcal/mol”.

One may read the Kd as the equilibrium constant for the complex coming apart.
